Holding throughout (type): in vivo, Sprague-Dawley rats
Experiment [1] has as its system Clostridium difficile toxin A-induced colitis. Description: Toxin A-induced colitis, acute intraluminal pretreatment of isolated colonic segment. Particulars: for toxin A-induced structural damage of the colon (H&E) / percent inhibition of toxin A-induced MPO activity / percent inhibition of toxin A-induced luminal fluid accumulation: 30 minutes before toxin A; for relative potency and interaction for inhibition of acute toxin A-induced colitis: given alone versus together. How it is done:
(§1) Drug Administration. In studies using chronic administration, sulfasalazine, APAZA™, and 4-APAA were administered in the drinking water at doses ranging from 0.1-100 mg/kg·d for 5 days. Sulfasalazine and APAZA™ were initially dissolved in 0.1 N NaOH at 30 times the desired final concentration and then the pH was adjusted to 8.5 with 1 N HCl and the solution was diluted 30-fold with distilled water. 4-APAA was dissolved in water. On the fifth day, the rats were fasted overnight (with access to their drinking water±sulfasalazine, APAZA™, or 4-APAA ad lib), anesthetized, and isolated colonic segments were surgically created as described below. In studies using acute administration, the rats were pretreated by injection of 4-APAA at doses of 10 or 100 μg in 200 μl of PBS (pH 7.4) into the lumen of the colonic segment using a 27 ga syringe needle. Toxin A (10 μg) in 200 μl of PBS (pH 7.4) was tested alone or injected into the lumen of the colonic segment 30 minutes after 4-APAA using a 27 ga syringe needle.
(§2) Surgery. Isolated colonic segments were created in male Sprague-Dawley rats (150-175 g) as described previously for isolated ileal segments (see, Gastroenterol. 111: 1272-1280 (1996) and Proc. Natl. Acad. Sci. USA 91: 947-951 (1994). Rats fasted overnight with free access to drinking water were anesthetized by intramuscular injection of 67 mg/kg ketamine:33 mg/kg xylazine. A midline abdominal incision was made and colonic segments 5 cm in length were created by ligation with 4-0 silk sutures, taking care not to disturb the vascular supply. Toxin A (10 μg) in 400 μl of PBS (pH 7.4) was injected into the lumen of the colonic segment using a 27 ga syringe needle. Control rats were prepared similarly and their colonic segments were injected with the vehicles. The midline incision was then closed with a running suture, and the rats were placed on a heating pad at 37° C. for 3 hours. After 3 hours, the rats were euthanized and samples of the treated colonic segments were taken for analysis in vitro.
(§3) Histopathology. The severity of colonic histological damage was assessed using formalin-fixed, paraffin-embedded, H&E-stained sections.
(§4) Luminal Fluid Accumulation. Luminal fluid accumulation was measured gravimetrically. After 3 hours of treatment, the isolated colonic segments were removed, weighed, and their lengths were measured. Luminal fluid accumulation is expressed as mg wet weight per cm length.
(§5) Myeloperoxidase Activity. Myeloperoxidase (MPO) activity was measured as described previously (see, J. Invest. Dermatol. 78: 206-209 (1982)). Briefly, pieces of control and treated colonic segments were homogenized in 0.5% hexadecyltrimethylammonium bromide in 50 mM KH2PO4 (pH 6), freeze/thawed three times, centrifuged at 4° C. for 2 minutes, and then the absorbance of each supernatant was read at 460 nm at 0, 30, and 60 seconds after the addition of 2.9 ml of o-dianisidine dihydrochloride to 0.1 ml supernatant. The maximal change in absorbance per minute was used to calculate the units of MPO activity based on the molar absorbency index of oxidized o-dianisidine of 1.13×10^4 M^−1 cm^−1. The results are expressed as MPO units of activity per mg of tissue wet weight.
Adult male Sprague-Dawley rats (175-225 grams body weight) were purchased from Charles River Labs (Raleigh, N.C.). 4-APAA and 5-ASA were separately injected into the lumen of an isolated segment of the rat colon at doses of 0.01, 0.1, 1, and 10 μg (in volumes of 200 μl) 30 minutes prior to injection of 10 μg of Clostridium difficile toxin A. In a follow-up study, a combined dose of 10 ng (0.01 μg) each of 4-APAA and 5-ASA was injected prior to toxin A.
[…] Colonic inflammation was assessed by quantitating luminal fluid accumulation and myeloperoxidase content in the colonic segment tissue, and by examination of colonic structural damage using hematoxylin & eosin-stained sections of the treated colonic segment.
Surgery. […]

The test system is the same in experiment [2]. Description: Toxin A-induced colitis, chronic oral administration in drinking water for 5 days. The conditions noted are these: for doses that significantly inhibited toxin A-induced colitis: chronically for 5 days in drinking water, doses tested 1-100; for potency relative to sulfasalazine for inhibiting toxin A-induced colitis: chronic oral, dose-response studies. How it is done: Eighteen adult male Sprague-Dawley rats weighing 175-222 grams were divided into 3 groups each consisting of 6 animals: • 4-APAA (AA-002) 100 mg/kg orally+Toxin A (10 μg) injected into the lumen of the colon • Vehicle (DW) orally+Toxin A (10 μg) injected into the lumen of the colon • Vehicle (DW) orally
Following 5 days of 4-APAA administration in drinking water, both ketamine (67 mg/kg) and xylazine (33 mg/kg) were administered, an isolated colonic segment was surgically created, and 10 μg of Clostridium difficile toxin A was injected into the lumen of the colon. After 3 hours, the rats were euthanized and colonic inflammation was assessed by quantitating luminal fluid accumulation and myeloperoxidase (MPO) content in the colon tissue. In addition, histological evaluation of the treated colon segments was completed.
as §1, §2, §3, §4
as §5, with “The results are expressed as MPO units of activity per mg of tissue wet weight.” left out

Another experiment deals with DSS induced colitis. The experiment in a line: Dextran sulfate sodium (DSS) colitis in the rat. The conditions noted are these: oral gavage bid. Here is the method: The effectiveness of APAZA™ and sulfasalazine in ameliorating intestinal inflammation in a model of dextran sulfate sodium (DSS) induced colitis in Sprague-Dawley rats was determined. Thirty-six male Sprague-Dawley rats that were 7-8 weeks old and weighed 240-260 g were studied. […] After completion of the treatment period, rats were euthanized and the efficacy of the test drugs in inhibiting colitis was assessed by the following: • Disease Activity Index Scoring: • Body weight • Colon wet weight: body weight ratios • Colonic Myeloperoxidase (MPO) activity • Histopathological changes of the colon

The mark [3] stands for this setting: 0.01 μg (10 ng) each, intraluminal.
[4] abbreviates: 100 mg/kg·day in drinking water, 5 days.
The mark [5] stands for this setting: 100 mg/kg·day in drinking water, 5 days, toxin A 10 μg.
[6] abbreviates: 0.5 mg/kg·day in drinking water, 5 days.
Where [7] appears, read: 1 mg/kg·day in drinking water, 5 days.
Setting [8] is: 10 mg/kg·day in drinking water, 5 days.

Experimental findings from patent US8048924B2, “Methods and compositions employing 4-aminophenylacetic acid compounds” (Biocon Limited, priority 2001, dated 2011) are described below.

Entries after “also recorded” stand apart in the source; their conditions may differ.

In the case of `Nc1ccc(O)c(C(=O)O)c1` [5-ASA, 5-amino-2-hydroxy-benzoic acid, reference compound], the “toxin A-induced MPO activity, significance of inhibition” value in experiment [1] (setting [3]) is recorded as “not significantly inhibited”; in experiment [1] (1.0 μg intraluminal) it was “significantly inhibited”; in experiment [1] (10 μg intraluminal), “significantly inhibited”. In addition, the “toxin A-induced luminal fluid accumulation, significance of inhibition” value in experiment [1] (setting [3]), in experiment [1] (0.1 μg intraluminal), in experiment [1] (1.0 μg intraluminal) and in experiment [1] (10 μg intraluminal) was “significantly inhibited” each time. In addition, the “toxin A-induced structural damage of the colon (H&E)” value (“toxin A-induced structural damage” for short) in experiment [1] (setting [3]) was “did not prevent”; in experiment [1] (0.1 μg intraluminal), “partially preserved surface ulceration”; in experiment [1] (1.0 μg intraluminal), “mucosal folding was also largely preserved”; in experiment [1] (10 μg intraluminal), “virtually completely protected”. In addition, in experiment [1], the “relative potency and interaction for inhibition of acute toxin A-induced colitis” value is “approximately equipotent”.
For the molecule `Nc1ccc(CC(=O)O)cc1` [4-APAA, (4-aminophenyl)-acetic acid], the “toxin A-induced MPO activity, significance of inhibition” value in experiment [2] (setting [4]) is “significantly inhibited”; in experiment [1] (setting [3]) it was “not significantly inhibited”; in experiment [1] (1.0 μg intraluminal), “significantly inhibited”; in experiment [1] (10 μg intraluminal), “significantly inhibited”. Besides, the “toxin A-induced luminal fluid accumulation, significance of inhibition” value in experiment [2] (setting [4]), in experiment [1] (setting [3]), in experiment [1] (0.1 μg intraluminal), in experiment [1] (1.0 μg intraluminal) and in experiment [1] (10 μg intraluminal) was “significantly inhibited” in each case. The “toxin A-induced structural damage” value was “protected the structural integrity; also recorded: strongly protected” in experiment [2] (setting [4]); “did not prevent” in experiment [1] (setting [3]); “preserved mucosal folding” in experiment [1] (0.1 μg intraluminal); “preserved mucosal folding” in experiment [1] (1.0 μg intraluminal); “strongly protected; also recorded: virtually completely protected” in experiment [1] (10 μg intraluminal); “strongly protected” in experiment [1] (100 μg intraluminal). Besides, the “percent inhibition of toxin A-induced MPO activity” value in experiment [2] (setting [5]) was 89±8%; in experiment [1] (10 μg intraluminal), 91±8%; in experiment [1] (100 μg intraluminal), 89±10%. For the same molecule, the results for the “percent inhibition of toxin A-induced luminal fluid accumulation” value in experiment [2] (setting [5]), in experiment [1] (10 μg intraluminal) and in experiment [1] (100 μg intraluminal) were 84±6%, 52±4% and 80±5%, respectively. Moreover, in experiment [2], the “doses that significantly inhibited toxin A-induced colitis” value is reported as 100 mg/kg·day. In addition, the “relative potency and interaction for inhibition of acute toxin A-induced colitis” value in experiment [1] is “approximately equipotent”. Besides, the “lowest dose that strongly inhibited toxin A-induced colitis in this experiment” value in experiment [1] (intraluminal injection 30 minutes before toxin A, 10 and 100 μg tested) stood at 10 μg/segment.
On to `O=C(O)Cc1ccc(/N=N/c2ccc(O)c(C(=O)O)c2)cc1` [APAZA™, 5-(4-carboxymethyl-phenylazo)-2-hydroxy-benzoic acid], for which the “toxin A-induced structural damage” value was “little if any protective effect” in experiment [2] (0.1 mg/kg·day in drinking water, 5 days); “partially protected” in experiment [2] (setting [6]); “strongly protected” in experiment [2] (setting [7]); “strongly protected” in experiment [2] (setting [8]); “strongly protected” in experiment [2] (setting [4]). Also, the “toxin A-induced luminal fluid accumulation, significance of inhibition” value in experiment [2] (setting [6]), in experiment [2] (setting [7]), in experiment [2] (setting [8]) and in experiment [2] (setting [4]) was “significantly inhibited” throughout. The “toxin A-induced MPO activity, significance of inhibition” value in experiment [2] (setting [7]), in experiment [2] (setting [8]) and in experiment [2] (setting [4]) was “significantly inhibited” throughout. In addition, the results for the “potency relative to sulfasalazine for inhibiting toxin A-induced colitis” value in experiment [2] and in experiment [2] (listed as APAZA™ compound) were 10-20 fold and 10-100 fold, respectively. Besides, the “doses that significantly inhibited toxin A-induced colitis” value in experiment [2] is reported as 1-100 mg/kg·day. Further, in the experiment on DSS induced colitis (APAZA 100 mg/kg, sulfasalazine 133 mg/kg), the “colon wet weight: body weight ratio, DSS versus DW” value was “no statistically significant difference”. Besides, the “Disease Activity Index (DAI) score” value in the experiment on DSS induced colitis (rats drinking 5% DSS, APAZA 100 mg/kg, sulfasalazine 133 mg/kg) was 0-1. For the same molecule, in the experiment with DSS induced colitis (rats receiving DSS), the “colonic MPO activity” value is reported as “similar”. The “histological changes of the colon” value with DSS induced colitis (rats receiving DSS) is “largely protected”.
